For data set [1], the system named is Methylmalonic Acidemia (MMA) primary fibroblasts GM01673. The data set is described as follows: Mitochondrial respiration, XFe96 Extracellular Flux Analyzer (OCR/ECAR), MMA fibroblasts GM01673. The class given is cell-based. To be noted: Homo sapiens, Fibroblast, read-out: Increase in Maximal Respiratory Capacity AUC. As for the experimental part:
The effect of the compounds of the present disclosure on mitochondrial respiration was measured with a XFe96 Extracellular Flux Analyzer (Seahorse Bioscience, Agilent Technologies) and Oxygen consumption Rate (OCR) and Extracellular acidification rate (ECAR) determined.
Cell culture and treatments. Primary adherent fibroblasts were cultured in minimum essential medium (MEM) (Gibco, 25030081) supplemented with 2 mM L-Glutamine (Gibco, 25030081), 15% fetal bovine serum (FBS) (Gibco, 26400044) and 1% penicillin/streptomycin (Gibco, 5140122) at 37° C. and 5% CO2. Cells were collected for either passaging or experiment at ˜70-80% confluence. Cells were obtained by trypsinization and seeded at 20000 cells/well in cell culture microplates (Seahorse Bioscience, 101085-004) and allowed to adhere for 16 hours in culture media.
By profiling different primary cells and/or optimizing their culture media or environmental components one can select cell lines and/or conditions that are appropriate for the biological or disease model. In the present example, 24 hours prior to OCR and ECAR profiling, media was changed to Dulbecco's Modified Eagle Medium (DMEM, Agilent Seahorse 103575-100) with the appropriate supplements for the different primary cells (10 mM glucose, 2 mM L-glutamine, 1 mM pyruvate, 10% FBS; 1 mM glucose, 2 mM L-glutamine, 1 mM pyruvate, 10% FBS; 10 mM glucose, 10% FBS; 5 mM glucose 10% FBS; 1 mM glucose 10% FBS). Cells used in this example were: Propionic Acidemia (PA) (GM00371, GM03590 Coriell Institute for Medical Research, Tsi 6337, Tsi 4626, Tsi 3618 Trans-Hit Bio), Methylmalonic Acidemia (MMA) (GM01673, Coriell Institute for Medical Research, Tsi 5224 Trans-Hit Bio), Branched chain ketoacid dehydrogenase kinase (BCKDK) (GM00612, GM00649 Coriell Institute for Medical Research), Subnormal activation of pyruvate dehydrogenase complex (PDH) (GM01503 Coriell Institute for Medical Research), Very long-chain acyl-CoA dehydrogenase (VLCAD) (GM17475), Leigh Syndrome (LS) (GM03672, GM13411 Coriell Institute for Medical Research), Pyruvate Carboxylase Deficiency (PC) (GM00444 Coriell Institute for Medical Research), Glutaric Acidemia-I (GA) (GM10653), Friedreich's Ataxia (FXN) (GM04078 Coriell Institute for Medical Research, Huntington's disease (HD) (GM21756 Coriell Institute for Medical Research), Ornithine Transcarbamylase Deficiency (OTC) (GM12756 Coriell Institute for Medical Research), Kearns-Sayre Syndrome (KSS) (GM06225 Coriell Institute for Medical Research).
One hour before the assay, the cells were washed with freshly prepared unbuffered serum free-Seahorse XF Assay medium (Seahorse Bioscience, North America, USA, 103575-100) with the same supplements as for the previous 24 hour incubation.
After baseline measurements of OCR, cells were challenged with compounds of the present disclosure at different concentrations (10 to 50 μM) or vehicle (DMSO, 0.1%) and a post-compound baseline was recorded. OCR was measured after sequentially adding to each well 1 μg/ml oligomycin (inhibitor of ATP synthase Sigma-Aldrich, 753531), then maximal OCR was determined with carbonyl cyanide 4-(trifluoromethoxy) phenylhydrazone (FCCP, Sigma-Aldrich, C2920), (uncoupler of oxidative phosphorylation) and 0.5 μM of rotenone (Sigma-Aldrich, R8875) plus antimycin A (Sigma-Aldrich, A8674) (inhibitors of mitochondrial complex I and III) for determination of rotenone-antimycin insensitive respiration together with Hoechst for nuclear staining in situ when normalized to cell counts. After the analysis and nuclear staining, the XFp microplate was transferred to the Cytation 5, and the nuclear images were captured, the individual nuclei were identified and counted by BioTek Gen5 software. Data were expressed as pmol of O2 per minute and normalized by nuclear staining and baselined to pre-compound addition.
Assay conditions were as stated below.
Assay specifics on assay conditions are indicated below when readouts were normalized to cell counts. […]

In data set [2] the test system is Bronchial epithelial cells co-cultured with dermal fibroblast (BF4T system). Put plainly: BioMAP BF4T system (TNFα and IL-4). To be noted: Homo sapiens, 24 h; 10 uM; procedure of Example 830; read-out: % increase in VCAM-1. Format: cell-based, human.
Data set [3] relates to Peripheral blood mononuclear cells co-cultured with venular endothelial cells (HUVEC) (LPS system). The data set is described as follows: BioMAP LPS system. Format: cell-based, human. The settings on record: Homo sapiens, HUVEC, 24 h, procedure of Example 827.
Another data set has as its system HepG2 cells. The data set is described as follows: Glucose uptake (Glucose Uptake-Glo). The class given is cell-based. To be noted: Homo sapiens, 50 uM, read-out: % increase in Glucose Uptake.
Data set [4] concerns Venular Endothelial cells (HUVEC) (4H system). Put plainly: BioMAP 4H system (IL-4 and histamine). The class given is cell-based, human. To be noted: Homo sapiens, HUVEC, 24 h; 1 uM; procedure of Example 826; read-out: % decrease in E-Selectin.
The test system of data set [5] is Peripheral blood mononuclear cells co-cultured with B-cells (BT system). The data set is described as follows: cells. To be noted: Homo sapiens, 72 h, read-out: % increase in sIL-6.
The test system of data set [6] is Bronchial epithelial cells (BE3C system). The data set is described as follows: BioMAP BE3C system (IL-1β, TNFα, IFNγ). The class given is cell-based, human. To be noted: Homo sapiens, Epithelial cell, 24 h; 10 uM; procedure of Example 831; read-out: % decrease in MMP-1.
Data set [7] concerns Propionic Acidemia (PA) primary fibroblasts GM00371. The data set is described as follows: Mitochondrial respiration, XFe96 Extracellular Flux Analyzer (OCR/ECAR), PA fibroblasts GM00371. Format: cell-based. To be noted: Homo sapiens, Fibroblast, 50 μM, read-out: Increase in Maximal Respiratory Capacity AUC.
The test system of data set [8] is Dermal fibroblasts (HDF3CGF system). The data set is described as follows: BioMAP HDF3CGF system (IL-1β, TNFα, IFNγ, EGF, bFGF, PDGF-BB). Format: cell-based, human. To be noted: 10 uM.
For data set [9], the system named is Peripheral blood mononuclear cells co-cultured with B-cells (BT system).
In data set [10] the test system is primary culture of rat embryo mesencephalic cells (microglia, astrocytes and neurons) exposed to LPS. Put plainly: Neuroprotective effect on damage induced by LPS on culture of mesencephalic neurons (NO, TNF-α, IL-1β, TH positive neurons). The class given is cell-based. To be noted: 50 uM, after 5 days of LPS exposure; for inhibition at 50 µM: Rattus norvegicus, Neuron, 120 h, read-out: % reversion of TH positive neurons. How it is done: Drug preparation. […] The stock solutions will be prepared 1000× the concentration in 100% DMSO. The final concentration of the vehicle (DMSO) is set at 0.1%.
Test animals. Pregnant Wistar rats (Janvier; France) are used for the study. They are group-housed and maintained in a room with controlled temperature (21-22° C.) and a reversed light-dark cycle (12h/12h; lights on: 17:30-05:30; lights off: 05:30-17:30) with food and water available ad libitum.
The protocol is performed in 3 independent cultures. For each culture, each condition is performed in sextuplicate.
Female rat of 15 days gestation is killed by cervical dislocation. Fetuses are removed from the uterus and their brains are harvested and placed in ice-cold medium (Leibovitz's L15 medium, Gibco). Only ventral mesencephalic flexure is used for the cell preparations. The midbrain is dissociated by trypsinization. The reaction is stopped, and the suspension is triturated and centrifuged. The pellet of dissociated cells is resuspended in culture medium consisted of DMEM-F12 (Gibco), containing 10% FBS (ATCC), 10% Horse serum (Gibco) and 2 mM L-glutamine (Gibco). Viable cells are counted and seeded on 96-well plates, precoated with poly-L-lysine. Cells are maintained in a humidified incubator at 37° C. in 5% CO2-95% air atmosphere. Half of the medium is changed on day 2 and day 5.
Treatment. On day 7, culture media are removed and replaced by new medium consisting of DMEM-F12 (Gibco) supplemented with 2% FBS (ATCC), 2% Horse serum (Gibco) and 2 mM L-glutamine (Gibco) and containing vehicle or test substances. After 1-hour exposure, LPS at 10 ng/ml is added and exposure further continued for 24 hours or 5 days period.
Inflammatory response measurement and neuronal death evaluation. NO production is measured in the media 24h and 5 days after LPS exposure using the Griess reagent kit (Molecular Probes). The Griess reagent Assay is a colorimetric reaction assay which measures the conversion of a sulfanilic salt into an azo dye product by nitrite. Visible wavelength absorbance data is collected using a 96-well plate reader at 570 nm (Multiskan EX, Thermo Fisher, France). IL-1β and TNF-α release are measured in the media 24h after LPS exposure using the ELISA development kit (PeproTech). The ELISA plate, previously coated with anti-IL-1β or anti-TNF-αantibody at 1 μg/ml, is incubated 1h with PBS containing 1% of BSA (bovine serum albumin). After washing four times with PBS containing 0.05% of Tween-20, the plate is successively incubated 2h with supernatant, 2h with biotinylated antibody at 0.5 μg/ml in PBS containing 0.1% of BSA and 0.05% of Tween-20, 45 min with Avidin-HRP conjugated at 1/2000 and 30 min with color ABTS substrate (Sigma). Visible wavelength absorbance data is collected using a 96-well plate reader at 405 nm with wavelength correction set at 650 nm (Multiskan EX, Thermo Fisher, France).
Immunodetection of tyrosine hydroxylase positive neurons. On day 12 (5 days after LPS exposure), cultures are fixed 30 min at 4° C. with paraformaldehyde in PBS (4%, Sigma). Then, cells are successively permeabilized with 0.1% Triton X100 for 30 min, saturated with PBS containing 3% of BSA (bovine serum albumin) and are incubated 2h with anti-tyrosine hydroxylase antibody (Sigma, 1:10000; clone TH-2) at 1/10 000 in PBS containing 0.5% of BSA. Cells are washed three times with PBS containing 0.5% of BSA, and they are incubated 1h with goat anti mouse antibody coupled with AF488 (Invitrogen A11001) diluted at 1/1000 in PBS containing 0.5% of BSA. Finally, nuclei are stained with DAPI at 1/1000 in PBS containing 0.5% of BSA. After rinsing with PBS, the plate is visualized and examined with Cell Insight HCS (Thermo Scientific) to determine the number of tyrosine hydroxylase positive cells per well.
Statistical Analysis. The drug-induced effect on NO and cytokines is calculated by setting the response of the LPS-stimulated control as 100%. […]

Where [11] appears, read: assay condition A (10 mM glucose, 2 mM L-glutamine, 1 mM pyruvate, 10% FBS).

Where two headings read alike, the source gives them in different places.

Regarding `CC(=O)N[C@@H](CC(=O)CC(=O)SCCNC(=O)CCNC(=O)[C@H](O)C(C)(C)CO)C(=O)O` [Compound 447], the activation at 50 µM in data set [1] (setting [11]) was ≥ 10%.
With `CC(=O)CC(=O)SCCNC(=O)CCNC(=O)[C@H](O)C(C)(C)COC(=O)O[C@H](CC(=O)[O-])C[N+](C)(C)C` [Compound 185, (3R,9R)-9-hydroxy-8,8-dimethyl-5,10,14,19,21-pentaoxo-3-((trimethylammonio)methyl)-4,6-dioxa-18-thia-11,15-diazadocosanoate], the activation at 10 µM in data set [2] was ≥ 10%; in [3] (10 uM, read-out: % increase in sTNFα), ≥ 10%; in [8] (Homo sapiens, Fibroblast, 72 h, read-out: % increase in 72 Hour Proliferation) it was ≥ 10%. The inhibition at 1 µM is ≥ 10% in data set [3] (1 uM, read-out: % decrease in sPGE2) and ≥ 10% in [4]. Further, the inhibition at 10 µM was ≥ 10% in data set [3] (10 uM, read-out: % decrease in IL-1α) and ≥ 10% in data set [6]. In addition, the activation at 50 µM was ≥ 30% in the data set on HepG2 cells and ≥ 10% in data set [7] (assay condition C (10 mM glucose, 10% FBS)). Also, the activation at 1 µM in [5] was ≥ 10%. Also, in [8], the “% increase in SRB” value is ≥10%. Moreover, the “% increase in B-cell Proliferation” value in data set [9] (1 uM, procedure of Example 829) is ≥10%. The “% increase in PBMC cytotoxicity” value in data set [9] (human, 72 h, 1 µM) is recorded as ≥10%. The “% decrease in NO release relative to LPS alone” value in data set [10] is reported as ≥20%. Also, the inhibition at 50 µM in data set [10] (list at threshold 15%) is ≥ 15%; in [10] (list at threshold 50%), ≥ 50%.
Regarding `CC(C)(CO)[C@@H](O)C(=O)NCCC(=O)NCCSC(=O)CC(=O)N[C@@H](CCCCN)C(=O)O` [Compound 485], in data set [1] (setting [11]), the activation at 50 µM was ≥ 10%.
Regarding `COC(=O)CC(SCCNC(=O)CCNC(=O)[C@H](O)C(C)(C)COC(=O)CN)C(=O)OC` (stereo partly drawn) [Compound 172], the activation at 50 µM in data set [7] (setting [11]) is ≥ 10%. For the same compound, the activation at 10 µM in data set [1] (setting [11]) is ≥ 10%; in [1] (assay condition D (1 mM glucose, 10% FBS)), ≥ 10%.
